In paper PMC9423655, “Huntington’s disease phenotypes are improved via mTORC1 modulation by small molecule therapy” (PLoS ONE, 2022):

Assays:
Format in all cases: in vivo
[1] = test system: mTORC1 pathway (pS6); assay: pS6 immunoblot of tissues after one oral dose in C57BL/6 mice; settings: single oral 160 mg/kg
Procedure: (§1) Specific regions of the brain and heart were homogenized using a Next Advance Bullet Blender Storm in Lysis Buffer (Cell lysis buffer: 1% Triton X-100, 50 mM HEPES pH 7.4, 100 mM sodium chloride, 2 mM EDTA, 10 mM Beta-glycerophosphate, 10 mM Sodium pyrophosphate, and 1 protease inhibitor) at 4°C. Lysates were cleared by centrifugation at 13,200 rpm at 4°C for 10 minutes. Equal amounts of total protein from each sample were denatured and, resolved by SDS-PAGE. Membranes were imaged using the LI-COR imaging system. Proteins levels are normalized to tubulin, actin or GAPDH levels and further normalized to vehicle treated mice for each tissue.
Fig 1 NV-5297 is a leucine analog activating the mTORC1 pathway in the brain and peripheral tissues. (A) NV-5297 chemical structure. Representative immunoblots of phosphorylated S6 (^S240/244pS6) from homogenized tissues from C57BL/6 mice orally dosed once with NV-5297 (160 mg/kg) and sacrificed 1 hour later (B) and quantification of the immunoblots normalized to loading controls and vehicle treated mice (n = 10 per treatment) (C). […]

[2] = test system: N171-82Q HD mice; assay: Chronic 6-week treatment: echocardiography and heart weight; settings: N171-82Q mice, 160 mg/kg daily 6 weeks
Excerpt: Animals were sacrificed by live decapitation one hour after the last oral dosing. Whole hearts were excised, blot-dried and weighed on an analytical balance. The heart was bisected transversely and the apical halves was preserved for cardiomyocyte and fibrosis staining. Left tibias were isolated and measured with an electronic caliper. The brain left hemisphere was preserved for MSN size measurement. The brain right hemisphere was microdissected and the medial pre-frontal cortex, striatum, cortex, hippocampus and cerebellum were collected.
Mice were anesthetized with 2% isoflurane and restrained on a stage with electrocardiogram (EKG) sensors. Transthoracic echocardiograms were performed using the Vevo 3100 Imaging System with a linear array MX550D transducer. Images were acquired by an experienced echocardiographer and then analyzed offline using the Vevo LAB analysis software. Parasternal long axis views and short axis views were used to assess left ventricular function. Measurements were performed to evaluate left ventricular dimensions during both systole and diastole of the cardiac cycle. The Vevo LAB left ventricle [LV] analysis tool, LV trace, was used to calculate cardiac output [CO] (heart rate ∙ stroke volume), fractional shortening [FS] (ventricle diameter at the end of the diastole–ventricle diameter at the end of the systole), ejection fraction [EF] (percentage of blood ejected by the left ventricle by heart beat), stroke volume (SV) (blood volume ejected from the left ventricle per beat), heart rate [HR] (bpm), left ventricular mass [LVmass], dimensions and volumes. Both imaging and analysis were performed by an operator blinded to the mice experimental treatment.
Fig 5 Oral dosing with NV-5297 over 6 weeks improves cardiac function and activates the mTORC1 pathway. […] (E) Quantification of the immunoblots for homogenized heart isolated 1 hour after oral dosing with NV-5297 (160 mg/kg; n = 14) normalized to loading control levels and further normalized to vehicle (Veh) treated mice (n = 15). […]

[3] = test system: mTORC1 pathway (pS6); assay: Isoprenaline cardiac stress: pS6 immunoblot of striatum and heart; settings: N171-82Q mice under isoprenaline cardiac stress, 1 hour after oral dosing 160 mg/kg
Procedure: as §1
Fig 8 mTORC1 pathway activation following NV-5297 dosing and cardiac stress in the striatum but not heart. Representative immunoblot (left panels) of phosphorylated S6 (^S240/244pS6) and quantification of normalized level (right panels) for homogenized heart (A) and striatum (B) isolated 1 hour after oral dosing with NV-5297 (160 mg/kg) with a saline (n = 10) or isoprenaline (n = 6) implant or treated with vehicle and an isoprenaline implant (n = 6) normalized to loading control levels and further normalized to vehicle treated mice with a saline implant (n = 9). Data are presented as mean ± SEM. *P ≤ 0.05, **P ≤ 0.01, ***P ≤ 0.001 (Mixed-effects model with Sidak’s multiple comparisons test).

With `CC(C)(C[C@H](N)C(=O)O)C(F)(F)F` [NV-5297, (S)-2-amino-5,5,5-trifluoro-4,4-dimethylpentanoic acid] the “pS6 in brain regions relative to controls” value ([1]; sacrificed 1 hour later) was “increased pS6 in all regions sampled”, the “pS6 in peripheral tissues relative to vehicle” value ([1]; tissues collected 1 hour later) was “increased pS6” and the heart mass [2] was “no discernable effect”. The “ejection fraction compared to vehicle” value ([2]; echocardiography) was “increased”, the “fractional shortening compared to vehicle” value ([2]; echocardiography) was “increased” and the “pS6/S6 ratio in heart” value [3] was “strong trend toward increased ratios”. For the same molecule, the “pS6/S6 ratio in striatum” value [3] was “increased pS6/S6 ratio”.
